Target: Vascular endothelial growth factor receptor 2 (Homo sapiens, UniProt P35968)
Experiment: Inhibition of VEGFR-2 (unknown origin) at 10 uM after 1 hr by Z'LYTE assay

Vascular endothelial growth factor receptor 2, sequence (P35968 whole entry): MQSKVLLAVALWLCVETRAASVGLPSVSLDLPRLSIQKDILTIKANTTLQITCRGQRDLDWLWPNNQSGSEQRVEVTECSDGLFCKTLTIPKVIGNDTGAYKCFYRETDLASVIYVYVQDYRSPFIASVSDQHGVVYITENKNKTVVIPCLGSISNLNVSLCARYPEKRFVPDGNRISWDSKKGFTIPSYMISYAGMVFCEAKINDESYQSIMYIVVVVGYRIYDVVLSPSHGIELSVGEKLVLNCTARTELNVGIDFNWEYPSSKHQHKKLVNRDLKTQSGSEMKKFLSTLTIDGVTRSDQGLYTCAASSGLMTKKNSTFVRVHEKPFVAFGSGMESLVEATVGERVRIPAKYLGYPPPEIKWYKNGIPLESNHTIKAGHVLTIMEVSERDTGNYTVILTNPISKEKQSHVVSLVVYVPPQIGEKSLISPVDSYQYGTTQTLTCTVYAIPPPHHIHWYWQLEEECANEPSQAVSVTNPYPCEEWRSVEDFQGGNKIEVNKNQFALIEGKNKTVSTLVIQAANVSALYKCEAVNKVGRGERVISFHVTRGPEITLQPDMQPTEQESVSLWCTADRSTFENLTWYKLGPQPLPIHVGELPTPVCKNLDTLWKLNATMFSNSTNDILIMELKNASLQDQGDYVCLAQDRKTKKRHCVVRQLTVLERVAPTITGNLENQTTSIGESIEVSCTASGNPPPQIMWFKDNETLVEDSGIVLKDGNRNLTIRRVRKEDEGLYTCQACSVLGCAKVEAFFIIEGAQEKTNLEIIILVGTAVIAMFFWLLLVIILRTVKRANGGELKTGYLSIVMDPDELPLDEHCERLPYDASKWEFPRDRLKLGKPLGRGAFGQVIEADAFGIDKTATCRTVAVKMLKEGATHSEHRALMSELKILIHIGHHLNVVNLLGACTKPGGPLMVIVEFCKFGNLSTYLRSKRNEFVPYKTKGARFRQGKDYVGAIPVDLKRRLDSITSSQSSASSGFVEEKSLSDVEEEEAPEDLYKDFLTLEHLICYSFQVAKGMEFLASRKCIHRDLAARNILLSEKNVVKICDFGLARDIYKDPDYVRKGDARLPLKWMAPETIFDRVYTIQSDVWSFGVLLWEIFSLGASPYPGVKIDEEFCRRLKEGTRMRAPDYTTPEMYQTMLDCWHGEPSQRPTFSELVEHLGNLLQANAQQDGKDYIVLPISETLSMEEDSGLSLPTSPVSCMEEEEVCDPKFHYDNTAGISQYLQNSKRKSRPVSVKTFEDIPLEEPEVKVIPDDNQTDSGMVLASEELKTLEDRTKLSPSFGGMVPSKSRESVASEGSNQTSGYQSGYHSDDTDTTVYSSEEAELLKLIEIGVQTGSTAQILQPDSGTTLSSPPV

Compound	inhibition [%]
Cc1c2ccc(Nc3ccnc(Nc4ccc(F)cc4)n3)cc2nn1C	63.8
Cc1c2ccc(Nc3ccnc(Nc4ccc(S(N)(=O)=O)cc4)n3)cc2nn1C	60.8

Reference: ChEMBL document CHEMBL3817755, “Design, synthesis and biological evaluation of indazolepyrimidine based derivatives as anticancer agents with anti-angiogenic and antiproliferative activities” (Medchemcomm, 2016)
